Patent publication US10017520B2, “Myc modulators and uses thereof” (Massachusetts Institute of Technology, priority 2014, dated 2018)
≈ marks a conversion by molar mass, not a printed value. Where two headings read alike, the source gives them in different places.

How the values were obtained:
[1] = test system: c-Myc; assay: Affinity-based pull down of c-Myc from nuclear lysate with compound-loaded beads, Western blot; type: binding
Experimental: Compound 19 beads (Figure SA) and compound 55 beads (FIG. 5B) were used. Results are expressed as a mean+/−SEM (n=3). Compound 55 beads were formed by a method analogous to the method shown in FIG. 4, where beads were linked to the —NH2 moiety of compound 55 by forming a urea moiety.
In order to explore the mechanism of action of compound 1, preliminary target identification experiments involving affinity-based pull downs were carried out. […] The structure of compound 19 allowed for linking compound 1 to beads (AFFI-GEL 102, Bio-Rad) (FIG. 4).
The linkage site to the bead via the nitrogen atom of the benzimidazolyl moiety was the original site of attachment to the small-molecule microarray and represented the orientation in the original screen.

[2] = test system: Namalwa cells; assay: Cell viability, CELL TITER GLO assay (Promega), Namalwa cells; type: cell-based
Experimental: (§1) FIGS. 2A to 2E show exemplary results of cell viability assay of compound 1. […] Results were expressed as a mean+/−SEM (n=3). RLU: Relative Luminescence Units.
(§2) The effect of compound 1 on cell viability in several cancer cell lines were determined. The cancer cell lines employed in the assay included those corresponding to hematopoietic and solid tumors. Exemplary results are shown in FIGS. 2A to 2E, where viability was assessed by CELL TITER GLO assay (Promega). Compound 1 was also submitted in a blinded fashion to the National Cancer Institute's CTD cancer cell line profiling pipeline, which enabled sensitivity profiling in about 800 cancer cell lines with annotation of specific genomic lesions that impart on human cancers (FIGS. 3A to 3B). […] The effects of other compounds described herein on cell viability in several cancer cell lines were also determined, and exemplary results are shown in Table 2, where viability was assessed by CELL TITER GLO assay (Promega).

[3] = Intrinsic clearance (liver microsomes, human), half-life; type: in vitro ADME
[4] = test system: c-Myc; assay: c-Myc reporter gene assay (Qiagen) in HEK293T cells; type: cell-based; conditions: Homo sapiens, HEK-293T, 16 h, treatment 16 hours, Firefly/Renilla ratio
Experimental: Compound 1's activity against Myc was measured as a Firefly/Renilla ratio, using the Myc reporter assay (Qiagen) in HEK293T cells after treatment with compound 1 for 16 hours. Results are expressed as a mean+/−SD (n=3). SD: standard deviation.
Select compounds described herein that were SMM assay positives were evaluated in several versions of a c-Myc reporter gene assay, including a commercial assay from Qiagen. The compounds' activities against c-Myc were measured as a Firefly/Renilla ratio, using the Myc reporter assay (Qiagen) in HEK293T cells after treatment with the compounds for 16 hours.

[5] = test system: NCIH1975 cells; assay: Cell viability, CELL TITER GLO assay (Promega), NCIH1975 cells; type: cell-based; conditions: Homo sapiens, NCI-H1975
Experimental: as §1, §2

[6] = test system: cancer cell lines; assay: Cell viability in cancer cell lines (CELL TITER GLO; CTD cancer cell line profiling); type: cell-based
Experimental: as §1
FIGS. 3A to 3B show CTD^2 viability data profile of cancer cell lines treated with compound 1. FIG. 3A: dose response curves of 789 cell lines treated with compound 1 for 72 hours. FIG. 3B: relative percent composition of cell lineages and enrichment analysis after treatment with compound 1.
as §2

[7] = Aqueous solubility at 37° C.; type: physicochemical
[8] = test system: Eu-Myc Arf −/− cells; assay: Cell viability, CELL TITER GLO assay (Promega), Eu-Myc Arf −/− cells; type: cell-based
Experimental: as §2

Row | SMILES | Half-life, intrinsic clearance (liver microsomes, human) [3] [min] | IC50 [4] [µM] | solubility ([7]; aqueous buffer, PBS, pH 7.4, 37° C., read-out: Solubility at 37° C., aqueous solubility (PBS, pH 7.4)) [µM] | solubility ([7]; fassgf or other biorelevant, simulated intestinal fluid, 37° C., read-out: Solubility at 37° C., aqueous solubility (simulated intestinal fluid)) [µM] | solubility ([7]; simulated gastric fluid, 37° C., read-out: Solubility at 37° C., aqueous solubility (simulated gastric fluid)) [µM] | c-Myc levels pulled down with free compound as soluble competitor ([1]; beads linked via nitrogen atom of the benzimidazolyl moiety (compound 55 beads)) | c-Myc pulled down with free compound as soluble competitor ([1]; compound 19 beads, nuclear lysate, 5 μM soluble competitor) | IC50 [2] [µM] | IC50 [5] [µM] | effect on cell viability in 5 cancer cell lines ([6]; 3 days, NCIH1975, SNUC5, Namalwa, KLP1, Hela, CELL TITER GLO) | effect on cell viability in a variety of cancer cell lines ([6]; several cancer cell lines and CTD profiling of about 800 cancer cell lines, 72 hours) | IC50 [8] [µM]
1 | CC(C)N1C(=O)S/C(=C\c2ccc(Sc3nc4ccccc4o3)o2)C1=O [Compound 6, (Z)-5-((5-(benzo[d]oxazol-2-ylthio)furan-2-yl)methylene)-3-isopropylthiazolidine-2,4-dione] |  | 9.39 |  |  |  |  |  | 37.2 | > 50 |  |  | > 50
2 | O=C(CCCC[C@H]1SC[C@H]2NC(=O)N[C@H]21)NCCCN1C(=O)S/C(=C\c2ccc(Sc3nc4ccccc4[nH]3)o2)C1=O [Compound 27, N-(3-((Z)-5-((5-((1H-benzo[d]imidazol-2-yl)thio)furan-2-yl)methylene)-2,4-dioxothiazolidin-3-yl)propyl)-5-((3aR,4R,6aS)-2-oxohexahydro-1H-thieno[3,4-d]imidazol-4-yl)pentanamide] |  | 2.28 |  |  |  |  |  | 12.2 | > 50 |  |  | 26
3 | O=C1NC(=O)/C(=C/c2ccc(Sc3nc4ccccc4[nH]3)o2)N1 [Compound 2, (Z)-5-((5-((1H-benzo[d]imidazol-2-yl)thio)furan-2-yl)methylene)imidazolidine-2,4-dione] |  | 7.5 |  |  |  |  |  | > 50 | > 50 |  |  | > 50

Stronger by IC50 [4], values ahead:

Row | Half-life, intrinsic clearance (liver microsomes, human) [3] [min] | IC50 [4] [µM] | solubility ([7]; aqueous buffer, PBS, pH 7.4, 37° C., read-out: Solubility at 37° C., aqueous solubility (PBS, pH 7.4)) [µM] | solubility ([7]; fassgf or other biorelevant, simulated intestinal fluid, 37° C., read-out: Solubility at 37° C., aqueous solubility (simulated intestinal fluid)) [µM] | solubility ([7]; simulated gastric fluid, 37° C., read-out: Solubility at 37° C., aqueous solubility (simulated gastric fluid)) [µM] | SMILES | c-Myc levels pulled down with free compound as soluble competitor ([1]; beads linked via nitrogen atom of the benzimidazolyl moiety (compound 55 beads)) | c-Myc pulled down with free compound as soluble competitor ([1]; compound 19 beads, nuclear lysate, 5 μM soluble competitor) | IC50 [2] [µM] | IC50 [5] [µM] | effect on cell viability in 5 cancer cell lines ([6]; 3 days, NCIH1975, SNUC5, Namalwa, KLP1, Hela, CELL TITER GLO) | effect on cell viability in a variety of cancer cell lines ([6]; several cancer cell lines and CTD profiling of about 800 cancer cell lines, 72 hours) | IC50 [8] [µM]
4 |  | 1.63 |  |  |  | COc1cccc2nc(Sc3ccc(/C=C4\SC(=O)N(C(C)C)C4=O)o3)[nH]c12 [Compound 30, (Z)-3-isopropyl-5-((5-((7-methoxy-1H-benzo[d]imidazol-2-yl)thio)furan-2-yl)methylene)thiazolidine-2,4-dione] |  |  | 72 | 56.3 |  |  | 11.1
5 |  | 1.19 |  |  |  | COc1ccc2nc(Sc3ccc(/C=C4\SC(=O)N(C(C)C)C4=O)o3)[nH]c2c1 [Compound 5, (Z)-3-isopropyl-5-((5-((6-methoxy-1H-benzo[d]imidazol-2-yl)thio)furan-2-yl)methylene)thiazolidine-2,4-dione] |  |  | 42.1 | 34.5 |  |  | > 50
6 |  | 1.05 |  |  |  | CC(C)N1C(=O)N/C(=C\c2ccc(Sc3nc4ccc(Cl)cc4[nH]3)o2)C1=O [Compound 22, (Z)-5-((5-((6-chloro-1H-benzo[d]imidazol-2-yl)thio)furan-2-yl)methylene)-3-isopropylimidazolidine-2,4-dione] |  |  | 16.5 | 45.3 |  |  | 6.09
7 | 22 | 0.67 | < 1 | 80.2 (≈ 30.9 µg/mL) | 62.7 (≈ 24.2 µg/mL) | CC(C)N1C(=O)S/C(=C\c2ccc(Sc3nc4ccccc4[nH]3)o2)C1=O [Compound 1, (Z)-5-((5-((1H-benzo[d]imidazol-2-yl)thio)furan-2-yl)methylene)-3-isopropylthiazolidine-2,4-dione] | decreased levels of c-Myc | less c-Myc pulled down | 21.1 | 24.9 | affected cell viability | demonstrated an effect in cell viability | 10.2
